# Test results from US10322107B2, “N-methyl-N-(1-phenyl-2-(1-pyrrolidinyl)ethyl)-2-aminophenylacetamide derivatives agonists for the kappa opioid receptor” (Nektar Therapeutics, priority 2014, dated 2019).
# pEC50, pIC50, pKi: −log10 of the molar value. Where two headings read alike, the source gives them in different places.
# Experiments:
# [1] = target: recombinant human kappa (KOR) opioid receptor (Homo sapiens, UniProt P41145); assay: Competitive radioligand binding at KOR ([3H]diprenorphine), CHO-K1 membranes
# [2] = target: T1, recombinant human mu (MOR) opioid receptor (Homo sapiens, UniProt P35372); assay: Competitive radioligand binding at MOR ([3H]naloxone), single concentration, CHO-K1 membranes; details: 10 μM test compound; percent inhibition of specific [3H]naloxone (4 nM) binding; read-out: Mu Opioid Receptor Mu Receptor Inhibition % inhib @ 10 uM
# T1 construct: expressed in transfected cells; host or cells: CHO-K1 cells (membranes)
# Method: The binding affinities of certain compounds of the present invention were evaluated using radioligand binding assays in membranes prepared from CHO-K1 cells expressing recombinant human kappa (KOR) or mu (MOR) opioid receptors.
# Competition binding experiments were conducted by incubating membrane protein to equilibrium in triplicate in the presence of a fixed concentration of radioligand and increasing concentrations of test compound for evaluation of binding to KOR or single concentration (10 μM) of test compound for evaluation of binding to MOR in 101 μL final volume. The radioligands used were specific for each receptor type, and the assay conditions are described in Table 1. Following incubations, the membranes were rapidly filtered through GF/B filter plate (presoaked with 0.5% polyethyleneimine), washed five times with cold 50 mM Tris-HCl, pH 7.5, and the bound radioactivity was then measured by liquid scintillation counting. Non-specific binding was measured in the presence of excess ligand; this value was subtracted from the total binding to yield the specific binding at each test concentration.
# Ki (affinity of test compound) was obtained using the Cheng Prusoff correction using experimental Kd (affinity of radioligand) values that were previously determined under these assay conditions. For MOR binding, compounds were tested at one concentration, 10 μM, to evaluate its ability to inhibit specific radioligand binding. The values are expressed as percent inhibition of specific binding and greater than 50% inhibition of binding was considered to be significant.
# [3] = target: T2, KOR (kappa opioid receptor) (Homo sapiens, UniProt P41145); assay: Inhibition of cAMP accumulation in forskolin-stimulated CHO-K1 cells stably expressing KOR; assay type: cell-based
# T2 construct: expressed in transfected cells
# [4] = Cheng Prusoff correction using experimental Kd of radioligand, read-out: Kappa Opioid Receptor Ki
# [5] = read-out: Kappa Opioid Receptor IC50
Compound,"pKi [1, 4]","pIC50 [1, 5]",inhibition at 10 µM [2],pEC50 [3],pIC50 [1],pKi [1],"pIC50 ([1]; inhibition of specific [3H]diprenorphine (1 nM) binding, one experiment in triplicate, read-out: Kappa Opioid Receptor IC50)"
"CN(C(=O)C(c1ccccc1)c1ccccc1)[C@H](CN1CCCC1)c1cccc(NS(=O)(=O)CCOCC(F)(F)F)c1 [Example 11, (S)—N-methyl-2,2-diphenyl-N-(2-(pyrrolidin-1-yl)-1-(3-(2-(2,2,2-trifluoroethoxy)ethylsulfonamido)phenyl)ethyl)acetamide]",7.35,6.46,57.6%,7.54,,,
COCCN(C)S(=O)(=O)Nc1cccc([C@@H](CN2CCCC2)N(C)C(=O)Cc2ccc(Cl)c(Cl)c2)c1 [Example 7],10.05,9.17,99.9%,9.72,,,
"Cc1ccc(CC(=O)N(C)[C@H](CN2CC[C@H](O)C2)c2ccc(OCCO)cc2)cn1 [Example 16, N-{(1S)-1-[4-(2-Hydroxyethoxy)phenyl]-2-[(3S)-3-hydroxypyrrolidin-1-yl]ethyl}-N-methyl-2-(6-methylpyridin-3-yl)acetamide]",8.87,7.99,28.4%,9.53,,,
"CN(C(=O)Cc1ccc(Cl)c(Cl)c1)[C@H](CN1CCCC1)c1cccc(NS(=O)(=O)c2ccc(C#N)c(C(F)(F)F)c2)c1 [Example 1, (S)—N-(1-(3-(4-cyano-3-(trifluoromethyl)phenylsulfonamido)phenyl)-2-(pyrrolidin-1-yl)ethyl)-2-(3,4-dichlorophenyl)-N-methylacetamide]",8.32,7.43,89%,8.70,,,
"CC(O)CS(=O)(=O)Nc1cccc([C@@H](CN2CCCC2)N(C)C(=O)C(c2ccccc2)c2ccccc2)c1 (stereo partly drawn) [Example 12, N-((1S)-1-(3-(2-hydroxypropylsulfonamido)phenyl)-2-(pyrrolidin-1-yl)ethyl)-N-methyl-2,2-diphenylacetamide]",7.31,6.43,47%,7.73,,,
"COCCN(CCOC)S(=O)(=O)Nc1cccc([C@@H](CN2CCCC2)N(C)C(=O)Cc2ccc(Cl)c(Cl)c2)c1 [Example 9, (S)—N-(1-(3-((N,N-bis(2-methoxyethyl)sulfamoyl)amino)phenyl)-2-(pyrrolidin-1-yl)ethyl)-2-(3,4-dichlorophenyl)-N-methylacetamide]",9.33,8.45,101%,9.30,,,
"CN([C@H](CN1CC[C@H](O)C1)c1ccc(OCCO)cc1)S(=O)(=O)Cc1ccc(C(F)(F)F)cc1 [Example 23, N-{(18)-1-[4-(2-Hydroxyethoxy)phenyl]-2-[(38)-3-hydroxypyrrolidin-1-yl]ethyl}-N-methyl-1-[4-(trifluoromethyl)phenyl]methanesulfonamide]",,,-2%,7.27,5.97,6.85,
"CN(C(=O)Cc1ccc(F)c(F)c1)[C@H](CN1CC[C@H](OCCO)C1)c1ccc(OCCO)cc1 [Example 21, 2-(3,4-Difluorophenyl)-N-{(1S)-1-[4-(2-hydroxyethoxy)phenyl]-2-[(3S)-3-(2-hydroxyethoxy)pyrrolidin-1-yl]ethyl}-N-methylacetamide]",,,0%,7.48,5.84,6.72,
"CN(C(=O)Cc1ccc(F)cc1F)[C@H](CN1CC[C@H](O)C1)c1ccc(OCCO)cc1 [Example 15, 2-(2,4-Difluorophenyl)-N-{(1S)-1-[4-(2-hydroxyethoxy)phenyl]-2-[(3S)-3-hydroxypyrrolidin-1-yl]ethyl}-N-methylacetamide]",9.16,8.28,23.5%,9.79,,,
"CN(C(=O)Cc1ccc(Cl)c(Cl)c1)[C@H](CN1CCCC1)c1cccc(NS(=O)(=O)c2cn(C)nc2C(F)(F)F)c1 [Example 5, (S)-2-(3,4-dichlorophenyl)-N-methyl-N-(1-(3-(1-methyl-3-(trifluoromethyl)-1H-pyrazole-4-sulfonamido)phenyl)-2-(pyrrolidin-1-yl)ethyl)acetamide]",9.00,8.11,97%,8.87,,,
"CN(C(=O)Cc1ccc(Cl)c(Cl)c1)[C@H](CN1CCCC1)c1cccc(NS(=O)(=O)c2cn(C)c(=O)n(C)c2=O)c1 [Example 2, (S)-2-(3,4-dichlorophenyl)-N-(1-(3-(1,3-dimethyl-2,4-dioxo-1,2,3,4-tetrahydropyrimidine-5-sulfonamido)phenyl)-2-(pyrrolidin-1-yl)ethyl)-N-methylacetamide]",9.15,8.27,87.1%,9.51,,,
"CN(C(=O)Cc1ccc(Cl)c(Cl)c1)[C@H](CN1CC(O)C1)c1ccc(OCCO)cc1 [Example 24, (S)-2-(3,4-dichlorophenyl)-N-(2-(3-hydroxyazetidin-1-yl)-1-(4-(2-hydroxyethoxy)phenyl)ethyl)-N-methylacetamide]",8.57,7.68,40.1%,9.11,,,
"CN(C(=O)Cc1ccc(Cl)c(Cl)c1)[C@H](CN1CCCC1)c1cccc(NS(=O)(=O)c2cc(Cl)c(Cl)s2)c1 [Example 10, (S)-2-(3,4-dichlorophenyl)-N-(1-(3-(4,5-dichlorothiophene-2-sulfonamido)phenyl)-2-(pyrrolidin-1-yl)ethyl)-N-methylacetamide]",8.90,8.02,95.9%,8.43,,,
"CC(O)CS(=O)(=O)Nc1cccc([C@@H](CN2CCCC2)N(C)C(=O)Cc2ccc(Cl)c(Cl)c2)c1 (stereo partly drawn) [Example 8, 2-(3,4-dichlorophenyl)-N-((1S)-1-(3-(2-hydroxypropylsulfonamido)phenyl)-2-(pyrrolidin-1-yl)ethyl)-N-methylacetamide]",10.30,9.46,99%,10.22,,,
"CN(C(=O)Cc1ccc(F)cc1F)[C@H](CN1CC[C@H](OCCO)C1)c1ccc(OCCO)cc1 [Example 20, 2-(2,4-difluorophenyl)-N—((S)-1-(4-(2-hydroxyethoxy)phenyl)-2-((S)-3-(2-hydroxyethoxy)pyrrolidin-1-yl)ethyl)-N-methylacetamide]",5.13,,-29.4%,5.57,,,4.24
"CN([C@H](CN1CC[C@H](O)C1)c1ccc(OCCO)cc1)S(=O)(=O)Cc1ccc(Cl)c(Cl)c1 [Example 22, 1-(3,4-Dichlorophenyl)-N-{(1S)-1-[4-(2-hydroxyethoxy)phenyl]-2-[(3S)-3-hydroxypyrrolidin-1-yl]ethyl}-N-methylmethanesulfonamide]",7.49,6.61,-10.3%,7.81,,,
"CN(C(=O)Cc1ccc(Cl)c(Cl)c1)[C@H](CN1CCCC1)c1cccc(NS(=O)(=O)c2cccnc2Cl)c1 [Example 4, (S)—N-(1-(3-(2-chloropyridine-3-sulfonamido)phenyl)-2-(pyrrolidin-1-yl)ethyl)-2-(3,4-dichlorophenyl)-N-methylacetamide]",8.19,7.30,91.8%,8.76,,,
"CN(C(=O)Cc1nccs1)[C@H](CN1CC[C@H](O)C1)c1ccc(OCCO)cc1 [Example 18, N-{(1S)-1-[4-(2-Hydroxyethoxy)phenyl]-2-[(3S)-3-hydroxypyrrolidin-1-yl]ethyl}-N-methyl-2-(1,3-thiazol-2-yl)acetamide]",7.75,,-3.2%,8.33,6.87,,
"Cc1noc(C)c1S(=O)(=O)Nc1cccc([C@@H](CN2CCCC2)N(C)C(=O)Cc2ccc(Cl)c(Cl)c2)c1 [Example 6, (S)-2-(3,4-dichlorophenyl)-N-(1-(3-(3,5-dimethylisoxazole-4-sulfonamido)phenyl)-2-(pyrrolidin-1-yl)ethyl)-N-methylacetamide]",9.41,8.52,84.6%,8.94,,,
"CC(O)CS(=O)(=O)Nc1cccc([C@@H](CN2CCCC2)N(C)C(=O)Cc2ccc(C(F)(F)F)cc2)c1 (stereo partly drawn) [Example 13, N-((1S)-1-(3-(2-hydroxypropylsulfonamido)phenyl)-2-(pyrrolidin-1-yl)ethyl)-N-methyl-2-(4-(trifluoromethyl)phenyl)acetamide]",10.00,9.12,95.4%,10.17,,,
"CN(C(=O)Cc1ccc(Cl)c(Cl)c1)[C@H](CN1CCCC1)c1cccc(NS(=O)(=O)c2ccc(Cl)nc2)c1 [Example 3, (S)—N-(1-(3-(6-chloropyridine-3-sulfonamido)phenyl)-2-(pyrrolidin-1-yl)ethyl)-2-(3,4-dichlorophenyl)-N-methylacetamide]",9.44,8.55,94.2%,9.54,,,
